{"source": "paper PMC12240781", "about": "(Frontiers in Pharmacology, 2025)", "key": {"in vitro": {"experiment": "in vitro", "details": "for Papp at 6 h, 25 μg/mL: PAMPA; for Increase in Papp: with probiotic bacteria vs control without probiotics", "description": "Hydrophobic MultiScreen PVDF microfiltration plates with 96 wells and a pore diameter of 0.45 μm (Millipore, USA) were used as acceptor plates and as supports for the artificial membrane. Each well of the acceptor plate was impregnated with 6 μL of a 2% lecithin solution in n-dodecane, and after solvent evaporation, an artificial membrane was formed. To the corresponding wells of the acceptor plate, 200 μL of PBS buffer (pH 7.4) was added, while 300 μL of the tested compound solution in respective buffer was added to the wells of the donor plate (MultiScreen Transport Receiver Plate, Millipore, USA). All analyses were conducted in triplicate at three different pH values in the donor compartment, while the pH value in the acceptor compartment was always 7.4. The donor plate was aligned with the acceptor plate to initiate incubation. Incubation of samples was performed at 37°C in a sealed PAMPA system to minimize oxygen exposure. […] Before HPLC injection, protein precipitation was achieved by diluting a 50 μL sample from the donor compartment fivefold with acetonitrile, followed by centrifugation at 15,000 rpm for 10 min at +4°C, as described by Đanić et al. ([Ðanić et al., 2019]). Subsequently, 100 μL of the supernatant was directly injected into the HPLC system.\nAfter determining the concentrations of the tested compounds in the donor and acceptor wells, apparent permeability coefficients (Papp) were calculated and expressed in units of cm/s based on the equation: Papp=C×−ln 1−Ca/Ceq where C is a correction factor calculated as: C=Vd×Va/Vd+Va×S×t\nThe equilibrium drug concentration (Ceq) was determined using mass balance: Ceq=Cd×Vd+Ca×Va/Vd+Va\nIn these equations, Ca represents the drug concentration in the acceptor compartment after 6 h, Ceq is the equilibrium drug concentration determined based on mass balance, Va and Vd denote the volumes of the acceptor and donor compartments, respectively, measured in milliliters, t represents the time period over which permeability was assessed, expressed in seconds, and S refers to the membrane surface area in square centimeters. The surface area of the artificial membrane was calculated to be 0.24 cm^2, as the acceptor filter membrane plates have a surface area of 0.32 cm^2 and a porosity of 75%, according to the manufacturer’s data.\nSample analysis was performed using high-performance liquid chromatography (HPLC; Dionex) with a diode array detector (DAD). […] Briefly, the chromatographic analysis was performed using a reverse-phase Zorbax Eclipse Plus C18 column (150 mm × 2.1 mm, 5 μm; Agilent Technologies, USA), coupled with a Zorbax Extend C18 guard column (12.5 mm × 2.1 mm, 5 μm; Agilent Technologies, USA). During the analysis, the column temperature was maintained at a constant 25°C, and the injection volume was 20 μL. Elution was performed using an isocratic program, with the mobile phase consisting of 50% AcN and 50% phosphate buffer adjusted to pH 3.3 with orthophosphoric acid, with the addition of 0.5 mL triethylamine as a column modifier. The total analysis time was 5 min, with a constant flow rate of the mobile phase at 0.3 mL/min. […] The eluate was monitored using a UV/DAD detector at a wavelength of 276 nm."}, "[1]": {"details": "pH 5.8, Henderson-Hasselbalch equation"}, "[2]": {"details": "cited from earlier work"}}, "data": [{"molecule": "Cn1cnc([N+](=O)[O-])c1Sc1ncnc2nc[nH]c12", "note": "[azathioprine]", "values": [{"measurement": "Papp at 6 h, 25 μg/mL", "setting": "in vitro; Permeability [Papp x10^−7] [cm/s]", "value": "0.193 ± 0.014", "unit": "×10⁻⁶ cm/s"}, {"measurement": "Papp at 6 h, 25 μg/mL", "setting": "in vitro; Permeability class across the PAMPA membrane", "value": "< 1", "unit": "×10⁻⁶ cm/s"}, {"measurement": "Papp at 6 h, 25 μg/mL", "setting": "in vitro; pH 7.4, Permeability [Papp x10^−7] [cm/s]", "value": "0.134 ± 0.005", "unit": "×10⁻⁶ cm/s"}, {"measurement": "Rise of azathioprine levels in the acceptor compartment", "setting": "in vitro; incubated with probiotics, 6 h", "value": "less than 1%"}, {"measurement": "Increase in Papp", "setting": "in vitro; pH 5.8", "value": 2.2, "unit": "fold"}, {"measurement": "Increase in Papp", "setting": "in vitro; pH 6.5", "value": 1.9, "unit": "fold"}, {"measurement": "Increase in Papp", "setting": "in vitro; pH 7.4", "value": 2.5, "unit": "fold"}, {"measurement": "Increase of azathioprine concentration in the acceptor compartment", "setting": "in vitro; with probiotics vs control without probiotics (AP vs. A), pH 5.8, 6 h", "value": 18, "unit": "%"}, {"measurement": "Increase of azathioprine concentration in the acceptor compartment", "setting": "in vitro; with probiotics vs control without probiotics (AP vs. A), pH 7.4, 6 h", "value": 57, "unit": "%"}, {"measurement": "Increase of azathioprine concentration in the acceptor compartment", "setting": "in vitro; with probiotics vs control without probiotics, pH 6.5, 6 h", "value": 26, "unit": "%"}, {"measurement": "Ionization percentage", "setting": "[1]", "value": 0.84, "unit": "%"}, {"measurement": "Biopharmaceutics Classification System (BCS) class", "setting": "[2]; low solubility and low permeability, ref Bocci et al., 2022", "value": "Class IV"}, {"measurement": "logP", "setting": "[2]; ref Hansch et al., 1996", "value": 0.1}]}]}
